The text below walks through data of patent US20100055198A1, “HARD SURFACE CLEANING AND DISINFECTING COMPOSITION” (Arkema Inc., priority 2007, published 2010).

Assay [1] relates to gram-positive and gram-negative bacteria. Briefly: Disinfection properties overall (AOAC Use-Dilution). The class given is cell-based. Particulars: low concentration (e.g. 3%), pH 7. Here is the method: (§1) The testing was performed in accordance with the protocols outlined in “Use-dilution Method”, Protocols 955.14, 955.15 and 964.02 described in Chapter 6 of “Official Methods of Analysis”, 16th Edition, of the Association of Official Analytical Chemists; “Germicidal and Detergent Sanitizing Action of Disinfectants”, 960.09 described in Chapter 6 of “Official Methods of Analysis”, 15th Edition, of the Association of Official Analytical Chemists; or American Society for Testing and Materials (ASTM) E 1054-91 the contents of which are herein incorporated by reference. This test is also commonly referred to as the “AOAC Use-Dilution Test Method”. Testing was conducted starting with 10^5 to 10^6 CFU/ml bacteria concentration, 10 ml of the cleaning composition described in each example and test protocol outlined in the “AOAC Use-dilution Method”.

In another assay the test system is S. aureus. Briefly: AOAC Use-Dilution disinfection test, S. aureus. The class given is cell-based, Staphylococcus aureus. On the procedure:
as §1

For a further assay, the system named is P. aeruginosa. As to the kind of experiment: AOAC Use-Dilution disinfection test, P. aeruginosa. In kind it is cell-based, Pseudomonas aeruginosa. On the procedure:
as §1

For the next assay, the system named is S. choleraesuis. Briefly: AOAC Use-Dilution disinfection test, S. choleraesuis. The class given is cell-based, Salmonella choleraesuis. Here is the method:
as §1

Setting [2] is: pH 4.4, time 0 min (starting count).
Setting [3] is: pH 7.7, time 0 min (starting count).

For `CC(C)O` [isopropanol, Isopropanol], in assay [1], the “disinfectant property, in words” value is “slight disinfectant property”.
With hydrogen peroxide [3% H2O2], the “killing gram positive bacteria (Staphylococus aureus), in words” value in the assay with S. aureus (acidic pH) and with S. aureus (neutral pH) was “not effective” each time. Further, the “S. aureus (CFU/ml)” value with S. aureus (setting [2]) is given as 1.6 × 10^5 CFU/ml; in the assay on S. aureus (pH 4.4, time 5 min, average from two replicates) it was 4.3 × 10^3 *^1 CFU/ml; in the assay with S. aureus (setting [3]) it was 1.3 × 10^5 CFU/ml; in the assay on S. aureus (pH 7.7, time 5 min), 6.0 × 10^2 CFU/ml. Besides, the results for the “P. aeruginosa (CFU/ml)” value in the assay with P. aeruginosa (setting [2]) and in the assay with P. aeruginosa (setting [3]) were 1.7 × 10^5 CFU/ml and 1.5 × 10^5 CFU/ml, respectively. The entries for the “S. choleraesuis (CFU/ml)” value in the assay with S. choleraesuis (setting [2]) and in the assay on S. choleraesuis (setting [3]) were 2.9 × 10^5 CFU/ml and 2.4 × 10^5 CFU/ml, respectively.
